# Experimental data: the METLIN SMRT retention time set (Domingo-Almenara et al. 2019)
# Test: gradient 5% acetonitrile 3 min, to 50% in 2 min, to 85% in 15 min, held 3 min, 100 µL/min
# Settings: column: Zorbax Extend-C18 2.1 x 50 mm; eluents: water / acetonitrile, 0.1% formic acid
# Outline: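 In both positive and negative ionization mode, a quadrupole time-of-flight mass spectrometer coupled to HPLC analyzed pure standards run in mixtures of ~100 molecules. The Zorbax Extend-C18 column (2.1 × 50 mm, 1.8 μm) was operated at 100 μL/min with water and acetonitrile, each containing 0.1% formic acid. The dead volume was 40 μL and the dwell volume 900 μL. Retention time came from adduct peaks that were computationally picked and individually inspected by hand.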
row,SMILES,RP-LC retention time [s]
1,CCCn1cc(C(=O)NCC(=O)OCC)c(S(=O)(=O)N2CCN(c3ccc(Cl)cc3)CC2)n1,1040
2,O=C(NC1CCCCCCC1)C1CCN(S(=O)(=O)c2cc(-c3noc(C4CC4)n3)cs2)CC1,1100
3,Cc1cccc(S(=O)(=O)N(C)CC2(C)CCOCC2)c1,918
4,Cc1cccc(N2CCN(c3ccc(SCC(=O)Nc4cccc(F)c4)nn3)CC2)c1,896
5,COc1ccc(Cl)cc1NC(=O)Cn1cccc(-c2nc(-c3ccc(OC)c(OC)c3)no2)c1=O,887
6,COc1ccc(C(C)NC(=O)C2=C3CCCN3c3ccc(F)cc3S2(=O)=O)cc1 (stereo not drawn),899
7,CCOC(=O)C1C(=O)C=C(c2ccc(OC)c(OC)c2)CC1c1cccc(OC)c1OC (stereo not drawn),923
8,Cn1cc(C(=O)NCCc2cccs2)c(S(=O)(=O)N2CCSCC2)n1,842
9,COC(=O)[C@H]1[C@H]2C[C@@H]3c4[nH]c5cc(OC)ccc5c4CCN3C[C@H]2C[C@@H](OC(=O)CC(C)=O)[C@@H]1OC,731
10,CN1C(=O)c2cccn2CC1C(=O)Nc1ccccc1F (stereo not drawn),673
11,CC(=O)Nc1nc(-c2ccc3c(c2)N(C)C(=O)C(C)O3)cs1 (stereo not drawn),739
12,O=C(C1CC1)N1CCc2sc(S(=O)(=O)NCc3ccc4c(c3)OCO4)cc2C1,812
13,CCCC(NC(=O)C1CCCN(c2nc3c(s2)c(C)nn3-c2ccc(C)cc2)C1)c1cccs1 (stereo not drawn),1300
14,Cc1nccn1Cc1nc(-c2cccc(F)c2)no1,607
15,O=C(Nc1ccccc1)C1CCCN(c2ncnc3c2nc2n3CCCCC2)C1 (stereo not drawn),774
16,Cc1nc2nc(-c3ccc(C(C)(C)C)cc3)nn2c(C)c1CC(=O)N1CCOCC1,832
17,CCOC(=O)c1c(C)[nH]c(C)c1S(=O)(=O)N1CCC(C(=O)Nc2ccc3c(c2)OCO3)CC1,774
18,CCc1nnc(NS(=O)(=O)c2ccc(NC(=O)c3ccc([N+](=O)[O-])s3)cc2)s1,769
19,O=C(Cc1c(Sc2ccccc2)[nH]c2ccccc12)NCCN1CCOCC1,654
20,COc1ccc(C2c3c(oc4ccc(Br)cc4c3=O)C(=O)N2C)cc1OC (stereo not drawn),774
21,COc1ccc(/C(=N/O)C(c2ccc(OC)cc2)C2C(=O)Oc3ccccc32)cc1 (stereo not drawn),840
22,COc1cc(NC(=O)C2CCCN(c3nccnc3Sc3ccccc3)C2)cc(OC)c1OC (stereo not drawn),984

row,SMILES,RP-LC retention time [s]
1,O=c1c2cnc3nc(-c4ccccc4)nn3c2ccn1CCc1c[nH]c2ccccc12,925
2,CCC(=O)N1CCc2cc(C(=O)NCc3ccc(C)o3)ccc21,757
3,Cc1nc2ncnn2c(N2CCC(C)CC2)c1C,1020
4,COc1cc(OC)cc(N2C(=O)CC(c3ccc(OC)c(OC)c3)CC2=O)c1,833
5,C=Cc1ccc(Cn2nc3ccc(S(=O)(=O)N4CCC(C)CC4)cn3c2=O)cc1,1060
6,CCc1noc(-c2cccnc2N2CCCN(Cc3ccccc3F)CC2)n1,662
7,COc1ccccc1-c1nc(-c2ccc3c(c2)nnn3CCN2CCCCC2)no1,663
8,CCN1c2cc(Cl)ccc2C(=O)NC12CCN(C(=O)Nc1ccc(OC)cc1)CC2,895
9,CCCn1cc(C2=CCN(C(=O)NCc3ccc(OC)cc3)CC2)c2cccnc21,888
10,CC(=O)N1c2ccc(S(=O)(=O)N3CCCC3)cc2CC1C(=O)NCCN1CCCCCC1 (stereo not drawn),630
11,Cc1cccc(C(=O)Nc2cc(-c3ccsc3)no2)c1,992
12,Cc1ncoc1C(=O)N(C)C1CCc2nn(CC3CC3)c(=O)n2CC1 (stereo not drawn),594
13,CCNC(=O)N1CC(n2cc(C(=O)NCCC3=CCCCC3)nn2)C1,721
14,CCOc1ccc(N2C=C(C(=O)OC)S(=O)(=O)c3ccccc32)cc1,887
15,COc1cccc(C(=O)Nc2ccc3c(c2)Sc2ncccc2C(=O)N3C)c1,785
16,Cc1ccc(S(=O)(=O)N2CCC3(CC2)NCCN=C3NCc2cccc(F)c2)cc1,718
17,O=c1c2scc(-c3cccc(F)c3)c2ncn1Cc1ccc(Br)cc1,1170
18,COc1ccc(-c2c(C)noc2NC(C)=O)cc1S(=O)(=O)N1CCC2(CC1)OCCO2,680
19,CCc1ccccc1NC(=O)N1CCc2nc(-c3ccccc3)ncc2C1,924
20,CCc1ccc(C2=C(C)C(N3CCC(NC(=O)NCCCOC)CC3)=NS2(=O)=O)cc1,739
21,CCCC(=O)Nc1ccc2nc(N3CCN(c4cc(Cl)ccc4C)CC3)cc(C(=O)O)c2c1,746
22,Cc1ccc(-n2c(N3CCCC(C(=O)NCc4ccc(F)cc4F)C3)nc3ccsc3c2=O)cc1 (stereo not drawn),918

row,SMILES,RP-LC retention time [s]
1,O=C(c1ccco1)N1CCN(C(=O)c2cccn2CC(=O)N2CCc3ccccc32)CC1,711
2,Cc1cccc(N2C(=O)CN(S(=O)(=O)c3ccccc3)CC2(C)C(=O)NC2CCCC2)c1C (stereo not drawn),968
3,O=C(NC1CCCCCC1)C1CCCN(C(=O)Cc2cccc3ccccc23)C1 (stereo not drawn),983
4,CCNC(=O)C1CCCN(C(=O)Nc2ccc(NC(=O)Nc3ccc(C)c(C)c3)cc2)C1 (stereo not drawn),748
5,CNC(=O)c1cc(N2CCOCC2)nc2c(C)cccc12,704
6,COc1cccc(CCC(=O)N2CCc3cc(-c4csc(C)n4)ccc32)c1,1040
7,COC1CN(c2cccc(F)c2)C12CCN(CC1CCCCC1)CC2 (stereo not drawn),806
8,O=C(Cn1ccc2ccc(N3CCOCC3)nc21)NCc1ccc(F)cc1Cl,912
9,COc1ccc(CCC(=O)NC2CCN(c3nnc4cccc(C)n34)CC2)cc1,647
10,CCCCNC(=O)Cn1nc2c3cc(-c4ccc(C)c(C)c4)nn3ccn2c1=O,924
11,O=C(NC(c1nnc(-c2ccccc2)o1)c1ccccc1F)c1ccco1 (stereo not drawn),851
12,CC(C)(C)NS(=O)(=O)CCNC(=O)c1ccccc1,665
13,CCC(CC)C(=O)N1CCN(c2ccc(=O)n(-c3ccc(Cl)cc3)n2)CC1,887
14,COc1ccc(Cl)cc1C(=O)N1CCN(c2cc(-n3nc(C)cc3C)nc(C)n2)CC1,988
15,COc1cccc(S(=O)(=O)N2CCC(c3noc(-c4cccc(C)c4)n3)CC2)c1,1180
16,CCCCN1C(=O)C(NC(=O)c2ccccc2OC)(C(F)(F)F)C2=C1CC(C)(C)CC2=O (stereo not drawn),1080
17,O=C(NC1CCCCC1)c1nc(-c2cn(-c3ccc(Cl)cc3)nn2)no1,1030
18,Cc1sc(NC(=O)C(C)C)nc1-c1ccc2c(c1)NC(=O)CO2,750
19,COc1ccc(-c2ncc(NC(=O)C(C)C)cn2)cc1,802
20,CCOc1ccccc1NC(=O)N1CC(n2ccnc2)C1,594
21,CCOc1ccccc1NC(=O)N1CCCC(Cn2cnc3cccnc32)C1 (stereo not drawn),723
22,COc1cc(NC(=O)c2cc(C)n3nc(C)cc3n2)cc(OC)c1OC,847

row,SMILES,RP-LC retention time [s]
1,CCCCN(C)C(=O)CSc1ncc(S(=O)(=O)c2cccs2)c(N)n1,749
2,CC(C)c1nncn1C1CCN(C(=O)c2ccc3c(c2)OCO3)C1 (stereo not drawn),612
3,Cc1nn2c(CNC(=O)c3ccoc3)c(-c3ccccc3)nc2s1,742
4,Cn1cc(-c2ccncc2)cc1C(=O)N1CCN(c2ccc(F)cc2)CC1,632
5,Cn1nc(C(=O)Nc2ccc(CC(=O)NCC(F)(F)F)cc2)ccc1=O,622
6,Cn1c(=O)sc2cc(S(=O)(=O)N3CCC(C(=O)Nc4cccc(C#N)c4)CC3)ccc21,860
7,COc1cc(O)ccc1-c1nc2cc(C)ccn2c1Nc1ccccc1C,673
8,Cc1ccc(Cl)cc1N1CCN(C(=O)c2ccc(Cn3cncn3)cc2)CC1,877
9,CCN(CC)CCn1c(=O)c(Cc2ccc(OC)cc2)nc2ccccc21,720
10,Cc1cnc(-c2ccccc2C(C)C)nc1NCc1ccc(-n2ccnn2)cc1,770
11,CCOC(=O)c1nn(-c2ccccc2)cc1O,830
12,O=C(CC1(O)C(=O)Nc2c(Cl)cc(Cl)cc21)c1cccc2ccccc12 (stereo not drawn),862
13,COc1ccc2c(c1)C1(CCN(C(=O)Cc3ccc(C)cc3)C1)C(=O)N2 (stereo not drawn),757
14,Cc1cccc(N2CCN(c3cc(C(=O)O)c4cc(NC(=O)CC(C)C)ccc4n3)CC2)c1,710
15,CCOC(=O)c1cnc2c(C(F)(F)F)cccc2c1NCCN(C)C,614
16,CCCn1cnc2cc(CNC(=O)C(C)c3ccccc3)ccc21 (stereo not drawn),631
17,O=C(NCCc1ccc(Cl)cc1)C(=O)Nc1ccon1,772
18,CC(=O)N1CCCc2cc(S(=O)(=O)N3CCC(C(=O)N4CCc5ccccc5C4)CC3)ccc21,843
19,O=C(NC1CCCC1)C(c1ccc(Cl)cc1)N1CCN(C(=O)c2ccco2)CC1 (stereo not drawn),954
20,COc1ccc(CNC(=O)c2cnc(OC)nc2)c(OC)c1,715
21,Cc1cccc(-c2noc(Cn3ncn4nc(-c5ccccc5Cl)cc4c3=O)n2)c1,1200
22,CCc1ccc(NC(=O)Cn2c(=O)nc(N3CCC(C)CC3)c3ccccc32)cc1,921
